Measured values taken from PubChem BioAssay AID1963827 (Molecular Pharmacology Branch, DTP, NCI, 2024).

Tested on: 994946-033-R-J1-PDC complex spheroid viability
Assay: Anticancer human tumor 994946-033-R-J1-PDC patient-derived melanoma cell line growth inhibition [POLQ]
Details: for IC50: curve of first compound; for viability, T/C: stronger effect = lower value; active = viability on the fitted dose curve at most 10% of control; inactive = the rest
Summary of the method: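 Growth inhibition in 3D: complex spheroids (tumor PDC, HUVEC, MSC) treated with POLQ inhibitor combinations; where Cmax unknown, highest tested concentration 10 microM, except SN-38 at 1 microM.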

[1] = second compound 0.0316 µM, first compound 0.0316 µM
[2] = second compound 0.0316 µM, first compound 0.1 µM
[3] = second compound 0.0316 µM, first compound 0.316 µM
[4] = second compound 0.0316 µM, first compound 1 µM
[5] = second compound 0.1 µM, first compound 0.0316 µM
[6] = second compound 0.1 µM, first compound 0.1 µM
[7] = second compound 0.1 µM, first compound 0.316 µM
[8] = second compound 0.1 µM, first compound 1 µM
[9] = second compound 0.316 µM, first compound 0.0316 µM
[10] = second compound 0.316 µM, first compound 0.1 µM
[11] = second compound 0.316 µM, first compound 0.316 µM
[12] = second compound 0.316 µM, first compound 1 µM
[13] = second compound 1 µM, first compound 0.0316 µM
[14] = second compound 1 µM, first compound 0.1 µM
[15] = second compound 1 µM, first compound 0.316 µM
[16] = second compound 1 µM, first compound 1 µM
[17] = second compound 3.16 µM, first compound 0.0316 µM
[18] = second compound 3.16 µM, first compound 0.1 µM
[19] = second compound 3.16 µM, first compound 0.316 µM
[20] = second compound 3.16 µM, first compound 1 µM
[21] = second compound 10 µM, first compound 0.0316 µM
[22] = second compound 10 µM, first compound 0.1 µM
[23] = second compound 10 µM, first compound 0.316 µM
[24] = second compound 10 µM, first compound 1 µM
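Note: spheroids exposed to drugs for 7 days.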
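Throughout, for viability, T/C: 100% = DMSO vehicle treated spheroids.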

C=CCn1c(=O)c2cnc(Nc3ccc(N4CCN(C)CC4)cc3)nc2n1-c1cccc(C(C)(C)O)n1 + COC1C(OC(N)=O)C(O)C(Oc2ccc3c(O)c(NC(=O)c4ccc(O)c(CC=C(C)C)c4)c(=O)oc3c2C)OC1(C)C
855 nM: IC50 (second compound 0.0316 µM)
966 nM: IC50 (second compound 10 µM)
863 nM: IC50 (second compound 0.1 µM)
> 1000 nM: IC50 (second compound 1 µM) | IC50 (second compound 3.16 µM)
675 nM: IC50 (second compound 0.316 µM)
inactive: viability, T/C (second compound 0.0316 µM, first compound 0.00316 µM) 89.1% | viability, T/C (second compound 0.0316 µM, first compound 0.01 µM) 115% | viability, T/C [1] 126% | viability, T/C [2] 117% | viability, T/C [3] 92.8% | viability, T/C [4] 43.2% | viability, T/C (second compound 0.1 µM, first compound 0.00316 µM) 93.1% | viability, T/C (second compound 0.1 µM, first compound 0.01 µM) 101% | viability, T/C [5] 117% | viability, T/C [6] 96% | viability, T/C [7] 89.2% | viability, T/C [8] 44.3% | viability, T/C (second compound 0.316 µM, first compound 0.00316 µM) 98.5% | viability, T/C (second compound 0.316 µM, first compound 0.01 µM) 109% | viability, T/C [9] 134% | viability, T/C [10] 102% | viability, T/C [11] 83.9% | viability, T/C [12] 32.8% | viability, T/C (second compound 1 µM, first compound 0.00316 µM) 110% | viability, T/C (second compound 1 µM, first compound 0.01 µM) 118% | viability, T/C [13] 94.9% | viability, T/C [14] 102% | viability, T/C [15] 104% | viability, T/C [16] 60.8% | viability, T/C (second compound 3.16 µM, first compound 0.00316 µM) 91.9% | viability, T/C (second compound 3.16 µM, first compound 0.01 µM) 127% | viability, T/C [17] 106% | viability, T/C [18] 83.2% | viability, T/C [19] 56.5% | viability, T/C [20] 53.9% | viability, T/C (second compound 10 µM, first compound 0.00316 µM) 101% | viability, T/C (second compound 10 µM, first compound 0.01 µM) 104% | viability, T/C [21] 120% | viability, T/C [22] 114% | viability, T/C [23] 93.8% | viability, T/C [24] 48.6%

COc1cc2cc(C(=O)CCC(=O)O)sc2cc1OC + Nc1ccc(C#CCN(C(=O)Cc2ncc(C(F)(F)F)cc2C(F)(F)F)c2ccc(F)cc2)nn1
inactive: viability, T/C [1] 81.7% | viability, T/C [2] 99.5% | viability, T/C [3] 92.4% | viability, T/C [4] 83.2% | viability, T/C (second compound 0.0316 µM, first compound 3.16 µM) 86.7% | viability, T/C (second compound 0.0316 µM, first compound 10 µM) 67.9% | viability, T/C [5] 126% | viability, T/C [6] 101% | viability, T/C [7] 102% | viability, T/C [8] 92.1% | viability, T/C (second compound 0.1 µM, first compound 3.16 µM) 87.2% | viability, T/C (second compound 0.1 µM, first compound 10 µM) 87.1% | viability, T/C [9] 111% | viability, T/C [10] 86% | viability, T/C [11] 87.6% | viability, T/C [12] 109% | viability, T/C (second compound 0.316 µM, first compound 3.16 µM) 72.3% | viability, T/C (second compound 0.316 µM, first compound 10 µM) 96% | viability, T/C [13] 93.5% | viability, T/C [14] 98% | viability, T/C [15] 80.1% | viability, T/C [16] 79.4% | viability, T/C (second compound 1 µM, first compound 3.16 µM) 88.9% | viability, T/C (second compound 1 µM, first compound 10 µM) 95.8% | viability, T/C [17] 116% | viability, T/C [18] 75.5% | viability, T/C [19] 111% | viability, T/C [20] 96.3% | viability, T/C (second compound 3.16 µM, first compound 3.16 µM) 94.9% | viability, T/C (second compound 3.16 µM, first compound 10 µM) 66.8% | viability, T/C [21] 80.5% | viability, T/C [22] 81.9% | viability, T/C [23] 90.7% | viability, T/C [24] 91.8% | viability, T/C (second compound 10 µM, first compound 3.16 µM) 115% | viability, T/C (second compound 10 µM, first compound 10 µM) 78.8%
> 10000 nM: IC50 (second compound 0.0316 µM) | IC50 (second compound 0.1 µM) | IC50 (second compound 0.316 µM) | IC50 (second compound 1 µM) | IC50 (second compound 3.16 µM) | IC50 (second compound 10 µM)
